Results on 11 compounds are retold here after ChEMBL document CHEMBL1201862, “PubChem BioAssay data set” (2004).

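Five concentrations, 48 hours, 96-well plates. Here, GI50 denotes the concentration required for 50% inhibition of growth.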 Calls of active or inactive are those of the source. Cut-off read from the data, not from the text of the source: active = GI50 up to about 1.1 µM and inactive = higher.

Test systems include SNB-75; A549; OVCAR-4; EKVX; OVCAR-3; NCI-H522; SNB-19; PC-3; SK-MEL-5; 786-0; IGROV-1; UACC-257; BT-549; NCI/ADR-RES; HCT-116; MOLT-4; A498; TK-10; HT-29; RPMI-8226.
Holding throughout (assay): NCI anticancer screen, dose series, 48 h

Consider `COc1cc2c(cc1OC)C1Cc3cc(OC)c(OC)cc3C(C2)N1C`, for which the GI50 with SNB-75, in the assay with A549, in the assay with OVCAR-4, with EKVX, in the assay on OVCAR-3 and in the assay with NCI-H522 was > 100 µM (inactive) in each case. For the same compound, the GI50 is > 100 µM (inactive) in the assay on SNB-19; > 75 µM (inactive) in the assay on PC-3; > 100 µM (inactive) with SK-MEL-5; > 75 µM (inactive) in the assay with 786-0; > 75 µM (inactive) in the assay with IGROV-1; > 100 µM (inactive) with UACC-257. Further, the GI50 in the assay with BT-549 is > 75 µM (inactive); with NCI/ADR-RES, > 75 µM (inactive); in the assay on HCT-116 it was 26.9 µM (inactive); in the assay with MOLT-4, > 75 µM (inactive); in the assay with A498, > 75 µM (inactive).

Regarding `COC(=O)c1c(C)cccc1CC1Cc2c(C)cccc2C1=O` (stereo unspecified), the GI50 in the assay on SNB-75 is 29.7 µM (inactive); in the assay on TK-10, 35.2 µM (inactive); in the assay with A549, 28.4 µM (inactive); in the assay on HT-29, 30.5 µM (inactive); with OVCAR-4, 32.8 µM (inactive); in the assay on EKVX it was 33.7 µM (inactive). The GI50 in the assay on OVCAR-3 was 24.1 µM (inactive); in the assay with NCI-H522 it was 13.2 µM (inactive); in the assay on SNB-19 it was 48.3 µM (inactive); in the assay with PC-3 it was 34.4 µM (inactive); in the assay on SK-MEL-5, 20.7 µM (inactive); in the assay on 786-0 it was 32.4 µM (inactive). Moreover, the GI50 with IGROV-1 is 33.3 µM (inactive); with UACC-257 it was 27.8 µM (inactive); with BT-549, 35.9 µM (inactive); in the assay with NCI/ADR-RES it was 19.9 µM (inactive); with HCT-116, 25.9 µM (inactive); in the assay on MOLT-4, 24.4 µM (inactive). Besides, the GI50 with A498 was 22.6 µM (inactive).

In the case of `CSc1nc(C)cc(Nc2ccc(O)c(CN3CCCCC3)c2)n1`, the GI50 with SNB-75 was > 100 µM (inactive); with A549, > 100 µM (inactive); with HT-29, 20.4 µM (inactive); in the assay on OVCAR-4, > 100 µM (inactive); with EKVX it was 27.5 µM (inactive); with OVCAR-3, > 100 µM (inactive). In addition, the GI50 with NCI-H522 is 72.1 µM (inactive); in the assay with SNB-19, > 100 µM (inactive); in the assay with SK-MEL-5, 25.3 µM (inactive); in the assay with 786-0, 23.1 µM (inactive); in the assay on IGROV-1, 60.5 µM (inactive); in the assay with BT-549 it was > 100 µM (inactive). Also, the GI50 in the assay with NCI/ADR-RES is > 100 µM (inactive); with HCT-116 it was 27.8 µM (inactive); in the assay with RPMI-8226, 23.3 µM (inactive); in the assay on MOLT-4, 57.7 µM (inactive); in the assay on A498 it was 23.1 µM (inactive).

For `C=CCN(Cc1ccncc1)C(=O)C(O)(c1ccccc1)c1ccccc1`, the GI50 with SNB-75 was 85.9 µM (inactive); in the assay on TK-10 it was > 100 µM (inactive); in the assay with A549, 79.3 µM (inactive); with HT-29, 59.3 µM (inactive); in the assay with EKVX it was 35.9 µM (inactive); with OVCAR-3 it was 50.6 µM (inactive). Further, the GI50 was 34.3 µM (inactive) in the assay with NCI-H522; 95.7 µM (inactive) in the assay on SNB-19; 37.2 µM (inactive) in the assay on PC-3; 62.8 µM (inactive) with SK-MEL-5; > 100 µM (inactive) in the assay on 786-0; > 100 µM (inactive) with IGROV-1. For the same compound, the GI50 is 79.3 µM (inactive) in the assay on UACC-257; 11.8 µM (inactive) with BT-549; 17.7 µM (inactive) with NCI/ADR-RES; 48.2 µM (inactive) in the assay with HCT-116; 22 µM (inactive) with RPMI-8226; 27.8 µM (inactive) with MOLT-4.

`Cc1ccc(-n2cc(-c3ccc(Cl)cc3)c3c2N=CN2N=C(c4ccco4)NC32)cc1` (stereo unspecified): the GI50 in the assay on SNB-75 was 4.75 µM (inactive); in the assay with TK-10 it was 7.5 µM (inactive); with A549, 15 µM (inactive); in the assay on HT-29, > 100 µM (inactive); with OVCAR-4, 1.93 µM (inactive); in the assay on EKVX it was 17.7 µM (inactive). In addition, the GI50 with OVCAR-3 was 6.49 µM (inactive); with NCI-H522, 15.8 µM (inactive); in the assay with SNB-19, 14.3 µM (inactive); with PC-3, 12.8 µM (inactive); in the assay with SK-MEL-5 it was > 100 µM (inactive); in the assay with 786-0, 4.67 µM (inactive). For the same compound, the GI50 is 7.62 µM (inactive) in the assay on IGROV-1; > 100 µM (inactive) in the assay with UACC-257; 26.2 µM (inactive) with BT-549; 7.5 µM (inactive) with NCI/ADR-RES; 7.05 µM (inactive) in the assay on HCT-116; 4.22 µM (inactive) with A498.

With `COc1ccc(C2=CN3CCC[C@H]3C=C2c2cc(O)c(OC)c(OC)c2)cc1OC`, the GI50 in the assay with SNB-75 is 0.00227 µM (active); in the assay on TK-10, 0.00859 µM (active); in the assay on A549, 0.00394 µM (active); in the assay with HT-29, 0.0056 µM (active); with OVCAR-4, 0.00286 µM (active); in the assay with EKVX it was 0.00608 µM (active). In addition, the GI50 in the assay with OVCAR-3 is 0.00615 µM (active); in the assay with NCI-H522, 0.00418 µM (active); in the assay on SNB-19, 0.00309 µM (active); with PC-3, 0.0124 µM (active); with SK-MEL-5, 0.0038 µM (active); with 786-0, 0.00371 µM (active). In addition, the GI50 is 0.0104 µM (active) in the assay with IGROV-1; 0.00646 µM (active) in the assay with UACC-257; 0.0207 µM (active) with BT-549; 0.00198 µM (active) in the assay with HCT-116; 0.00519 µM (active) with RPMI-8226; 0.00351 µM (active) with MOLT-4. In addition, the GI50 in the assay on A498 is 0.005 µM (active).

Consider `CC(=O)NCCSC(=O)c1ccccc1`, for which the GI50 with SNB-75 was 0.741 µM (active); in the assay on TK-10, 0.126 µM (active); in the assay on A549 it was 0.155 µM (active); in the assay with HT-29, 0.167 µM (active); with OVCAR-4, 1.38 µM (inactive); in the assay on EKVX, 2.77 µM (inactive). In addition, the GI50 was 0.243 µM (active) in the assay with OVCAR-3; 0.215 µM (active) with NCI-H522; 0.916 µM (active) with SNB-19; 0.525 µM (active) in the assay on PC-3; 0.0171 µM (active) with SK-MEL-5; 0.0506 µM (active) in the assay on 786-0. Besides, the GI50 is 1.69 µM (inactive) in the assay with IGROV-1; 0.19 µM (active) with UACC-257; 0.946 µM (active) with BT-549; 0.163 µM (active) with NCI/ADR-RES; 0.0488 µM (active) in the assay with HCT-116; 0.131 µM (active) in the assay with RPMI-8226. Further, the GI50 in the assay on MOLT-4 is < 0.0176 µM (active).

On to `Cc1cc(CC(O)(C(F)(F)F)C(F)(F)F)cc(CC(O)(C(F)(F)F)C(F)(F)F)n1`, for which the GI50 was 2.31 µM (inactive) in the assay with SNB-75; 4.7 µM (inactive) in the assay on TK-10; 3.3 µM (inactive) in the assay on A549; 2.58 µM (inactive) in the assay on HT-29; 3.47 µM (inactive) in the assay with OVCAR-4; 2.89 µM (inactive) in the assay with EKVX. Also, the GI50 is 1.01 µM (active) in the assay on OVCAR-3; 2.36 µM (inactive) with NCI-H522; > 100 µM (inactive) in the assay with SNB-19; 2.9 µM (inactive) with PC-3; 1.72 µM (inactive) in the assay on SK-MEL-5; 2.29 µM (inactive) with 786-0. The GI50 with IGROV-1 is 3.46 µM (inactive); in the assay on UACC-257 it was 2.89 µM (inactive); in the assay on NCI/ADR-RES it was 1.87 µM (inactive); in the assay with HCT-116, 2.34 µM (inactive); in the assay on RPMI-8226, 1.61 µM (inactive); in the assay with MOLT-4, 3.24 µM (inactive). Besides, the GI50 with A498 was 2.76 µM (inactive).

Turning to `COc1ccc(-c2nc(-c3ccc(OC)cc3)n(-c3ccccc3)n2)cc1`, the GI50 in the assay with SNB-75 is > 100 µM (inactive); in the assay with TK-10 it was > 100 µM (inactive); in the assay with A549 it was 56.6 µM (inactive); in the assay on HT-29 it was 19.9 µM (inactive); in the assay on OVCAR-4 it was 31.7 µM (inactive); in the assay with EKVX, 56.4 µM (inactive). For the same compound, the GI50 with OVCAR-3 was 46.8 µM (inactive); with NCI-H522, 11.8 µM (inactive); with SNB-19 it was 57.8 µM (inactive); in the assay on PC-3, > 100 µM (inactive); with SK-MEL-5 it was 54.1 µM (inactive); in the assay with 786-0, > 100 µM (inactive). Also, the GI50 is > 100 µM (inactive) with IGROV-1; > 100 µM (inactive) with UACC-257; 38.5 µM (inactive) in the assay on BT-549; > 100 µM (inactive) with NCI/ADR-RES; > 100 µM (inactive) with HCT-116; 16.1 µM (inactive) in the assay with MOLT-4. Also, in the assay on A498, the GI50 is 45.7 µM (inactive).

As to `COc1cc(/C=C/c2nc(N)nnc2C)cc(OC)c1OC`, the GI50 with TK-10 was > 43.8 µM (inactive); in the assay with A549, 20.3 µM (inactive); in the assay with HT-29, 10.6 µM (inactive); in the assay with OVCAR-4 it was 27.9 µM (inactive); in the assay with EKVX, 18.1 µM (inactive); with NCI-H522, 2.43 µM (inactive). Further, the GI50 in the assay with SNB-19 was 23.4 µM (inactive); with PC-3 it was 11.4 µM (inactive); in the assay with SK-MEL-5, 14.1 µM (inactive); in the assay with 786-0 it was 21.5 µM (inactive); with IGROV-1, 15.6 µM (inactive); in the assay on UACC-257, 37.7 µM (inactive). Besides, the GI50 with BT-549 is 20.5 µM (inactive); with NCI/ADR-RES, 11.2 µM (inactive); with HCT-116, 9.89 µM (inactive); in the assay with RPMI-8226, 14.1 µM (inactive); in the assay on MOLT-4 it was 38.8 µM (inactive); in the assay on A498 it was 18 µM (inactive).

As for `O=C1NC(=O)[C@@]2(CC[C@@H](O)C2)c2ccncc21` [SESBANINE], the GI50 with SNB-75, in the assay with TK-10, in the assay with A549, in the assay on HT-29, in the assay with OVCAR-4 and in the assay on EKVX was > 100 µM (inactive) each time. The GI50 in the assay with NCI-H522, with SNB-19, with PC-3, in the assay with SK-MEL-5, in the assay on 786-0 and with IGROV-1 was > 100 µM (inactive) each time. Moreover, the GI50 in the assay on UACC-257, in the assay on BT-549, in the assay with NCI/ADR-RES, with HCT-116, in the assay with MOLT-4 and in the assay on A498 was > 100 µM (inactive) throughout.
